# Molecular target: T1, ΔF508-CFTR (Homo sapiens, UniProt P13569, DEL508-508)
# T1 construct: expressed in transfected cells
# Assay: Membrane potential optical (FRET/VIPR) assay, identification of potentiator compounds
# Format: cell-based
# Conditions: Table 3, assay not given; for % Activity: relative efficacy
# How it was run: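 NIH3T3 mouse fibroblasts stably expressing ΔF508-CFTR, temperature-corrected 24 h at 27° C., read on VIPR by FRET between CC2-DMPE and DiSBAC2(3). Potentiators identified in a double-addition format, first adding chloride-free (gluconate) medium with or without compound.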
# T1 sequence (P13569 with tags, fused parts or gaps DEL508-508): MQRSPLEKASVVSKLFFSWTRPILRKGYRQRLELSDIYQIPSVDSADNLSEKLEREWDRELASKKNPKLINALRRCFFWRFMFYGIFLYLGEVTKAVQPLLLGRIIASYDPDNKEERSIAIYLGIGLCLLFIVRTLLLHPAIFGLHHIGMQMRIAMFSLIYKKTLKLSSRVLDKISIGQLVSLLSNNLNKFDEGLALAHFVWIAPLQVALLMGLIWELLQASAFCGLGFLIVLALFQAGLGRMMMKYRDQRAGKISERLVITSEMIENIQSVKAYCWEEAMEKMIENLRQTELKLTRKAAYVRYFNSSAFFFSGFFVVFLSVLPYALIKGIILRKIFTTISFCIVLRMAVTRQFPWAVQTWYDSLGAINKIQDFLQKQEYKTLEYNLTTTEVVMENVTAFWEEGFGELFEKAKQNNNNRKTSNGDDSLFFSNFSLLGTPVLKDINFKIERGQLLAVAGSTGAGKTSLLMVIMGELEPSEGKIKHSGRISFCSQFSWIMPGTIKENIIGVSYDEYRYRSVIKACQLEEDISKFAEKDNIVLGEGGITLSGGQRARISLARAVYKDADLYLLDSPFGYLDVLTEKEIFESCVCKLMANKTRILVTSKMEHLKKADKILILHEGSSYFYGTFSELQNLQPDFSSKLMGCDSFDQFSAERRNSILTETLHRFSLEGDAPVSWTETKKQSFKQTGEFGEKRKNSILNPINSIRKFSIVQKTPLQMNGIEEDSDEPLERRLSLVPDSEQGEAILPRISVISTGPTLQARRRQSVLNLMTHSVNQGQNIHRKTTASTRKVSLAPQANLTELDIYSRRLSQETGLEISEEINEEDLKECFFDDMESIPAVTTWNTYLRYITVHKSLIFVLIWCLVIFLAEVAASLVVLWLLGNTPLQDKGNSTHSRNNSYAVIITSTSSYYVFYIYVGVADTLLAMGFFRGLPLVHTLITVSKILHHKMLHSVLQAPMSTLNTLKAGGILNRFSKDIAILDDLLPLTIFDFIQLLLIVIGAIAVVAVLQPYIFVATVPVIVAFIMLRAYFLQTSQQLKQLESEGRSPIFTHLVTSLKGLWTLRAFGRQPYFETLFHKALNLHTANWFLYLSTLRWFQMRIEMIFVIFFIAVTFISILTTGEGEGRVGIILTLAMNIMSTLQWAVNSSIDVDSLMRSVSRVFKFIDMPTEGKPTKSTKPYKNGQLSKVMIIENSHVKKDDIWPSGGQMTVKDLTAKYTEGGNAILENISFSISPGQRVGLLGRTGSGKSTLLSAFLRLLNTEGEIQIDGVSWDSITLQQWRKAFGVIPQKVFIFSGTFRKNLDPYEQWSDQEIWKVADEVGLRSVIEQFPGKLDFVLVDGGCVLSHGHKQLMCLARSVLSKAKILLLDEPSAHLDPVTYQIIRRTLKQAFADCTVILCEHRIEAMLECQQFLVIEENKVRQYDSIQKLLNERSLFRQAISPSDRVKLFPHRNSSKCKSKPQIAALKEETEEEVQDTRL
EC50 [µM],% Activity,Structure (SMILES)
10 to 25,++ (between 25% to 100%),"Cc1c[nH]c2cccc(NC(=O)c3c[nH]c4ccccc4c3=O)c12 [Compound 338, N-(3-methyl-1H-indol-4-yl)-4-oxo-1H-quinoline-3-carboxamide]"
25 to 60,+ (<25%),"O=C(Nc1cccc(S(=O)(=O)N2CCCC2)c1)c1c[nH]c2ccccc2c1=O [Compound 24, 4-oxo-N-(3-pyrrolidin-1-ylsulfonylphenyl)-1H-quinoline-3-carboxamide]"
< 10,++ (between 25% to 100%),"O=C(Nc1ccc2cc[nH]c2c1)c1c[nH]c2cccc(O)c2c1=O [Compound 116, 5-hydroxy-N-(1H-indol-6-yl)-4-oxo-1H-quinoline-3-carboxamide]"
< 10,++ (between 25% to 100%),"O=C(Nc1ccc(C23CC4CC(CC(C4)C2)C3)cc1)c1c[nH]c2ccccc2c1=O [Compound 455, N-[4-(1-adamantyl)phenyl]-4-oxo-1H-quinoline-3-carboxamide]"
< 10,++ (between 25% to 100%),"CC(C)c1ccccc1NC(=O)c1c[nH]c2ccccc2c1=O [Compound 36, N-(2-isopropylphenyl)-4-oxo-1H-quinoline-3-carboxamide]"
< 10,++ (between 25% to 100%),"O=C(Nc1ccccc1OCc1ccccc1)c1c[nH]c2ccccc2c1=O [Compound 240, N-(2-benzyloxyphenyl)-4-oxo-1H-quinoline-3-carboxamide]"
< 10,++ (between 25% to 100%),"CC(C)(C)c1cc(C(C)(C)C)c(NC(=O)c2c[nH]c3cccc(C(F)(F)F)c3c2=O)cc1O [Compound 520, N-(5-hydroxy-2,4-ditert-butyl-phenyl)-4-oxo-5-(trifluoromethyl)-1H-quinoline-3-carboxamide]"

# The next lines start with the compound.
Structure (SMILES),EC50 [µM],% Activity
"Cc1ccc2[nH]cc(C(=O)Nc3ccc(N4CCC(C)(C)C4)cc3C(F)(F)F)c(=O)c2c1 [Compound 489, N-[4-(3,3-dimethylpyrrolidin-1-yl)-2-(trifluoromethyl)phenyl]-6-methyl-4-oxo-1H-quinoline-3-carboxamide]",< 10,++ (between 25% to 100%)
"O=C(Nc1cccc(C(F)(F)F)c1)c1c[nH]c2ccccc2c1=O [Compound 164, 4-oxo-N-[3-(trifluoromethyl)phenyl]-1H-quinoline-3-carboxamide]",< 10,++ (between 25% to 100%)
"CC(C)c1ccc(NC(=O)c2c[nH]c3cc(F)c(F)cc3c2=O)c(C(F)(F)F)c1 [Compound 589, 6,7-difluoro-N-[4-isopropyl-2-(trifluoromethyl)phenyl]-4-oxo-1H-quinoline-3-carboxamide]",< 10,++ (between 25% to 100%)
"COc1cc2c(=O)c(C(=O)Nc3cc4[nH]ccc4cc3C(C)(C)C)c[nH]c2cc1F [Compound 611, 7-fluoro-6-methoxy-4-oxo-N-(5-tert-butyl-1H-indol-6-yl)-1H-quinoline-3-carboxamide]",< 10,+++ (>100%)
"O=C(Nc1ccc(S(=O)(=O)Nc2ccccn2)cc1)c1c[nH]c2ccccc2c1=O [Compound 21, 4-oxo-N-[4-(2-pyridylsulfamoyl)phenyl]-1H-quinoline-3-carboxamide]",25 to 60,+ (<25%)
"Cc1cccc(C(C)C)c1NC(=O)c1c[nH]c2ccccc2c1=O [Compound 430, N-(2-isopropyl-6-methyl-phenyl)-4-oxo-1H-quinoline-3-carboxamide]",< 10,++ (between 25% to 100%)
"COC(=O)C1CCCCN1c1ccc(NC(=O)c2c[nH]c3ccccc3c2=O)c(C(F)(F)F)c1 (stereo not drawn) [Compound 492, methyl 1-[4-[(4-oxo-1H-quinolin-3-yl)carbonylamino]-3-(trifluoromethyl)phenyl]piperidine-2-carboxylate]",< 10,+++ (>100%)
"O=C(Nc1cccc2cccnc12)c1c[nH]c2ccccc2c1=O [Compound 241, 4-oxo-N-(8-quinolyl)-1H-quinoline-3-carboxamide]",10 to 25,++ (between 25% to 100%)
